These results are taken from patent US20230405156A1, “METHODS OF DIAGNOSING AND PROGNOSING CANCERS OF THE HEAD AND NECK” (priority 2021, published 2023).

For data set [1], the system named is SSTR2 expression in C666-1 cells. In words: SSTR2 expression in C666-1 cells under pathway inhibitors. It is filed as cell-based.
Data set [2] deals with LMP1-induced SSTR2 expression in NP69 cells. Nature of the data set: LMP1-induced SSTR2 expression in NP69 cells under pathway inhibitors. It is filed as cell-based, human. To be noted: NP69 cells expressing LMP1. The source says: FIGS. 2A-2K. EBV infection is associated with SSTR2 upregulation in NPC—in vitro experiments and external validation dataset. a Immunofluorescence analysis of EBNA1 (red) and SSTR2 (green) expression in two representative examples of cultured primary respiratory epithelial cells before and after infection with the epitheliotropic M81 EBV strain. Nuclei are counterstained with DAPI (blue); Replication (n=5). b Percentages of cells positive for EBNA1 or co-expression of SSTR2 and EBNA1 c LMP1 induces SSTR2 expression in NP69, an immortalized normal nasopharyngeal epithelial cell line (relative quantities of SSTR2 were calculated using the comparative threshold cycle method and normalized using human beta-actin as endogenous control. Data is presented as a ratio relative to vector control). d LMP1-mediated SSTR2 induction in NP69 cells is inhibited by ectopic expression of TRAF3, a negative regulator of NF-κB. e In NP69 cells, LMP1-induced SSTR2 expression is suppressed by the NF-κB inhibitor BAY 11-7085 and MEK inhibitor U0126. f Both CTAR1 and CTAR2 regions of LMP1 (FIG. 6) are essential for LMP1-mediated SSTR2 induction. […] The color of the samples is based on unsupervised hierarchical clustering. […] Middle panel, Microarray SSTR2 expression is positively correlated with viral LMP1 expression (W=129, p=0.041, Wilcoxon two-sided test). […]

Data set [3] relates to C666-1 cells. In words: RNA-seq analysis of C666-1 cells treated with SSTR2-targeted drugs. The format is cell-based. The conditions noted are these: for cell senescence pathways (geneset enrichment) / pathways related to somatostatin biology such as interleukin signaling (geneset enrichment) / cell death/apoptotic pathways (geneset enrichment): 24 h post-treatment; for cell death/apoptotic pathways (geneset enrichment): lanreotide or octreotide; for SSTR2 expression (RNA-seq): lanreotide or octreotide treatment. How it is done:
RNA-seq analysis. C666-1 cells were seeded at a density of 1×10^6/well in six-well plates 2 days prior to compound addition. […] Untreated and DMSO-treated (1:2000 in medium) wells were used as controls. 24 and 72 h post-PEN-221 addition, DNA and RNA extraction was performed from separate wells using Quick-DNA Plus and Direct-zol RNA Plus Kit (Zymo Research, Irvine, CA, USA) according to the manufacturers' instructions.
RNA concentration was normalized to 100 ng/50 μl and Illumina libraries prepared using a NEBNext Poly(A) mRNA Magnetic Isolation Module in conjunction with a NEBNext Ultra II Directional RNA Library Prep Kit (New England Biolabs), according to the manufacturer's instructions using adapters diluted 1:50. Libraries were quantitated using the Agilent High Sensitivity D1000 ScreenTape System on a 2200 Tapestation (Agilent), pooled at equimolar concentration, denatured and sequenced on a NextSeq 500 (Illumina). RNA sequencing transcript abundance was estimated from fastq files using the reference-free quantification tool salmon with the gencode GRCh37 transcript annotation. Differential expression analysis was performed using DESeq237 with treatment, time and batch (where applicable) as covariates. Geneset enrichment analysis was performed using the GSEA function from clusterProfiler, with the reactome database pathways on the gene DESeq2 Wald statistics and a minimum and maximum pathway size of 25 and 500, respectively.

For data set [4], the system named is C666-1 cells. Nature of the data set: MTT-based cell viability assay (in vitro proliferation/survival). The conditions noted are these: 7 days, dilutions starting from 10 μM. As for the experimental part:
(§1) Culture of the cell lines. C666-1 cells were cultured in RPMI-1640 with 25 mM Hepes (Lonza, Berlin, Germany) supplemented with 10% heat-inactivated FCS (Gibco, Carlsbad, CA), 2 mM L-Glutamine, 100 units/ml penicillin (Gibco), and 0.1 mg/ml streptomycin (Gibco). Cells were maintained at 37° C., 5% CO2 and passaged every 7 days at a 1:2 ratio using accutase (Sigma, St. Louis, MO, USA). Seventy-five percent of culture medium was replaced by fresh medium every 2-3 days. NPC43 and C17 cell lines were cultured in RPMI-1640 with 25 mM Hepes (Lonza, Berlin, Germany) supplemented with 10% heat-inactivated FCS (Gibco, Carlsbad, CA), 2 mM L-Glutamine, 100 units/ml penicillin (Gibco) and 0.1 mg/ml streptomycin (Gibco) and 4 μM Y27632 (Promocell, Heidelberg, Germany). Cells were maintained at 37° C., 5% CO2 and passaged 5 days at a 1:4 ratio using accutase (Sigma, St. Louis, MO, USA). Culture medium was replaced by fresh medium every 2 to 3 days.
(§2) MTT-based cell viability assay. Two days prior addition of test compounds, NPC cells were plated at a density of 2×10^4 cells/well in 96-well plates. Compounds were prepared as advised by manufacturers, diluted half logarithmic in medium and added to the wells in quadruplicate starting from 10 μM (30 μM for cisplatin). PEN-211 containing medium was removed after 2 h, cells were washed with PBS and fresh medium was added. Plates were incubated in a humified chamber for 7 days; 50% of medium were exchanged every other day with fresh drug dilutions. MTT (3-[4,5-dimethylthiazol-2-yl]-2,5 diphenyl tetrazolium bromide) reagent (20 μl/well of 5 mg/ml solution) (Sigma-Aldrich) was added and solubilized after 4 h using 100 μl of a […] SDS/0.01M HCl solution. Dual absorbance was measured after 5 h in a microplate reader (Epoch BioTek, BioTek Instruments, Bad Friedrichshall, Germany) using 550 nm as measurement and 655 nm as reference filter. After subtraction of background absorbance, fractions of surviving cells were obtained by normalization to the mean of nontreated samples.

In the next data set the test system is NPC43 cells. The data set is described as above. The conditions noted are these: 7 days, dilutions starting from 10 μM. As for the experimental part: as §1, §2
Another data set relates to SSTR. The conditions noted are these: five patients with primary EBV-positive NPC; cited from earlier work.

Each structure is given as a SMILES string.

`N#CC(=C(/N)Sc1ccccc1N)/C(C#N)=C(\N)Sc1ccccc1N` [U0126]: the SSTR2 expression result in data set [1] is given as “suppressed”. Further, the “LMP1-induced SSTR2 expression” value in data set [2] is “suppressed”.
Regarding `CC(C)[C@@H]1NC(=O)[C@H](CCCCN)NC(=O)[C@@H](Cc2c[nH]c3ccccc23)NC(=O)[C@H](Cc2ccc(O)cc2)NC(=O)[C@@H](NC(=O)[C@H](N)Cc2ccc3ccccc3c2)CSSC[C@@H](C(=O)N[C@H](C(N)=O)[C@@H](C)O)NC1=O` [lanreotide], in the data set on C666-1 cells [3], the “cell senescence pathways (geneset enrichment)” value (from here on “cell senescence pathways”) is “upregulation of senescence pathways”, the “pathways related to somatostatin biology such as interleukin signaling (geneset enrichment)” value is reported as “induced upregulation”, the “cell death/apoptotic pathways (geneset enrichment)” value is on record as “no changes” and the “SSTR2 expression (RNA-seq)” value is on record as “did not affect SSTR2 expression”. Moreover, in the data set with C666-1 cells [3] (listed as Lanreotide), the “cell senescence pathways” value is reported as “upregulation of cell senescence pathways”. Moreover, in the data set with C666-1 cells [4], the in vitro proliferation result is “did not affect in vitro proliferation”. In addition, the in vitro proliferation result with NPC43 cells is given as “did not affect in vitro proliferation”.
Turning to `CC(C)(C)c1ccc(S(=O)(=O)/C=C/C#N)cc1` [BAY 11-7085], the SSTR2 expression result in data set [1] was “suppressed”. Besides, the “LMP1-induced SSTR2 expression” value in data set [2] is on record as “suppressed”.
With `C[C@@H](O)[C@@H]1NC(=O)[C@H](CCCCN)NC(=O)[C@@H](Cc2c[nH]c3ccccc23)NC(=O)[C@H](Cc2ccccc2)NC(=O)[C@@H](NC(=O)[C@H](N)Cc2ccccc2)CSSC[C@@H](C(=O)N[C@H](CO)[C@@H](C)O)NC1=O` [octreotide], in the data set with C666-1 cells [3], the “cell senescence pathways” value is given as “upregulation of cell senescence pathways”, the “pathways related to somatostatin biology such as interleukin signaling (geneset enrichment)” value was “induced upregulation”, the “cell death/apoptotic pathways (geneset enrichment)” value was “no changes” and the “SSTR2 expression (RNA-seq)” value was “did not affect SSTR2 expression”. For the same molecule, the in vitro proliferation entry with C666-1 cells [4] was “did not affect in vitro proliferation”. The in vitro proliferation entry with NPC43 cells was “did not affect in vitro proliferation”.
With `C[C@@H](O)[C@@H]1NC(=O)[C@H](CCCCN)NC(=O)[C@@H](Cc2c[nH]c3ccccc23)NC(=O)[C@H](Cc2ccc(O)cc2)NC(=O)[C@@H](NC(=O)[C@@H](Cc2ccccc2)NC(=O)CN2CCN(CC(=O)[O-])CCN(CC(=O)[O-])CCN(CC(=O)[O-])CC2)CSSC[C@@H](C(=O)N[C@H](CO)[C@@H](C)O)NC1=O.[68Ga+3]` [68Ga-DOTA-(Tyr3)-octreotide, ^68Ga-labeled 1,4,7,10-tetraazacyclododecane-N,N9,N99,N999 tetraacetic acid-D-Phe1-Tyr3-octreotide (DOTA-TOC)], in the data set with SSTR, the tumor uptake entry is given as “increased uptake”.
